# Several values for one entry are separate records, joined by “and”; a condition that tells them apart may be missing. Identical values can stand only once.
# What was measured:
# TwinStrep-GST-HDAC10 = molecular target: T1, TwinStrep-GST-HDAC10 (Homo sapiens, UniProt Q969S8); test: HDAC10 TR-FRET assay; format: binding; conditions: reducing conditions (0.5 M TCEP)
# T1 sequence (Q969S8 1-669): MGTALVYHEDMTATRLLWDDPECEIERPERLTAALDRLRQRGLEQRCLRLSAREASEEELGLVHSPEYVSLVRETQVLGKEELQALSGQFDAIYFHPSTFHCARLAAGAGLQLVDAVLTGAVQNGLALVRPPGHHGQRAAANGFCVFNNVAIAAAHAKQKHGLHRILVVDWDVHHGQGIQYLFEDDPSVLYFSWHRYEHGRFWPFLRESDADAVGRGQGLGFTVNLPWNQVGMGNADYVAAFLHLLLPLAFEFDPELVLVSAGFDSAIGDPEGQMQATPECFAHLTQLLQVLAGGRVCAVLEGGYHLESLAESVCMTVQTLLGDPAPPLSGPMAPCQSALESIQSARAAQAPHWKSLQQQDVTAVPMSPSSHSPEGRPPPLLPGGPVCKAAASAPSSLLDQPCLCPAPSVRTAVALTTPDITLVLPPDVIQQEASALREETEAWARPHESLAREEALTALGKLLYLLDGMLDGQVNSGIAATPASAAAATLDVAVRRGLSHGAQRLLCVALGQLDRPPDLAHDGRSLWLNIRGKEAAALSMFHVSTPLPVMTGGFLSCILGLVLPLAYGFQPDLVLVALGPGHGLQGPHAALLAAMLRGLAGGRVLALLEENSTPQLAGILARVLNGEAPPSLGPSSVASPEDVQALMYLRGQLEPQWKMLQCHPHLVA
# Protocol: To validate the inhibition of HDACs by LA and LM and elaborate on the structure-activity relationship (SAR) of enantiomers as well as oxidized versus reduced forms of the molecules, we performed enzyme activity assays for recombinant HDAC1,2,3,6,8 as well as FRET-based binding assay for recombinant HDAC10.
# Inhibitors with a D300e Digital Dispenser (Tecan). After drug dosing to the premixed assay reagents in buffer, plates were shaken (800 rpm orbital shaker, 30 s), centrifuged (300g, 1 min), and incubated at RT in the dark for 90 min. TR-FRET was measured with a CLARIOstar (BMG Labtech) plate reader, equipped with TR-FRET filters.
# DDX3X AcK118 = test: DDX3X acetylation detection by western blot, CBP-HA transfected HEK293T; format: cell-based
# Protocol: (§1) 0.2 × 10^6 HEK293T (ATCC: CRL-3216) cells were transfected with pcDNA 3.1-HA CBP plasmids (1 μg/well for the 6-well plate) by FuGENE. After 2 days, cells were treated with ACY-738, lipoic acid, and lipoamide for 7 h, then were washed by ice-cold PBS and lysed in Triton lysis buffer (50 mM Tris, pH 8.0, 150 mM NaCl, 1 mM EDTA, 0.1% TritonX-100 and complete EDTA-free protease inhibitors (Roche)) for analysis. To detect protein acetylation, 0.2 μM Trichostatin A and 5 mM nicotinamide were added to PBS for washing, and 10 μM trichostatin A, 10 mM nicotinamide, and 50 mM sodium butyrate were added to Triton lysis buffer.
# α-Tubulin AcK40 = test: α-tubulin acetylation detection by western blot, CBP-HA transfected HEK293T; format: cell-based; conditions: for concentration showing substantial increase of α-Tubulin AcK40 acetylation: 7 h drug incubation; for α-Tubulin AcK40 acetylation level relative to control: HEK293T
# Protocol: as §1
# TBL1XR1 (Homo sapiens) = test: Chemoproteomic competition pulldown assay (co-competed NCoR partner); format: binding; conditions: iQ, SW620 lysate
# Sequence of TBL1XR1 (Homo sapiens) (O15379 whole entry): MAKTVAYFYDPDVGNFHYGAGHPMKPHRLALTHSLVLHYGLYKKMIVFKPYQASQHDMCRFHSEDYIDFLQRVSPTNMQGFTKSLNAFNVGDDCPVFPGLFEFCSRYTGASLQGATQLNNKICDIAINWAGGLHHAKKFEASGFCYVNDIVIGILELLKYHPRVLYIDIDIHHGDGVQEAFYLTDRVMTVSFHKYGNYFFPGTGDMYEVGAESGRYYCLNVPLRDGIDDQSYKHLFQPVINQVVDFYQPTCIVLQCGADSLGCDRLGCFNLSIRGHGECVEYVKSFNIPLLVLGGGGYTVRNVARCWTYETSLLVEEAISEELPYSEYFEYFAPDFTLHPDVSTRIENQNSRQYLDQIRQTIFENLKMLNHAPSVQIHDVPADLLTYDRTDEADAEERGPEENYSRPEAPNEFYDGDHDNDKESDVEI
# Sequence of TBL1XR1 (Homo sapiens) (Q9BZK7 2-514, further chain): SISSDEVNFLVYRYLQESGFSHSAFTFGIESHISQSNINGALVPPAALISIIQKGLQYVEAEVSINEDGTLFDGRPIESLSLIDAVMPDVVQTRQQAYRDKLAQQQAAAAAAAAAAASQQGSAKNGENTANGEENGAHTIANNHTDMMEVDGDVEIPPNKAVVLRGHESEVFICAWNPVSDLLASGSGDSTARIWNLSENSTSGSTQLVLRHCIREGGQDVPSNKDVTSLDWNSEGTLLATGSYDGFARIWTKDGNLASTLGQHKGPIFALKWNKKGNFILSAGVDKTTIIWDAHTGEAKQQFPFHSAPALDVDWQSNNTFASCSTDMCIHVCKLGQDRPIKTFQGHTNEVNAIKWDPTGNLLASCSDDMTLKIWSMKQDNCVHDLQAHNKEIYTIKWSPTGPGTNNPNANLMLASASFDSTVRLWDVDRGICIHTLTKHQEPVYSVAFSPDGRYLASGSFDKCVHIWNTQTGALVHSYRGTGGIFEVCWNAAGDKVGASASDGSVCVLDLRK
# Protocol: To identify proteins directly bound by lipoic acid, we employed a chemoproteomic competition assay. Briefly, (R/S)-LA was immobilized on sepharose beads via an amidation reaction to form an affinity matrix (abbreviated as iL; Fig. 1a). This affinity matrix can be incubated with cell lysate to pull down potential LA or LM target proteins and identify these targets via bottom-up proteomics. In a competition assay, free LA or LM were incubated with lysate at different concentrations before pulling down and quantifying target proteins. […] (Fig. 1b, see “Methods” for details). […] The lysate buffer used in this assay contains 1 mM DTT to mimic the intracellular reductive milieu and to reduce lipoic acid and LM. […] Additional competition assays performed in lung adenocarcinoma cell A549 lysate also identified HDAC1, HDAC2, and HDAC6 as targets (Supplementary Fig. 1b). Amongst the three cell lines tested, HDACs were the only confidently identified targets across the 1500–3000 proteins quantified in these assays. […] We validated the results by analogous pulldown competition assays using two other affinity matrices prepared via the immobilization of either the HDAC inhibitor Quisinostat (iQ) and an analog of the class IIa HDAC inhibitor Bürli’s 31[14] (iC)[12]. We have previously shown that these affinity matrices specifically bind to the active sites of HDACs and have used them for HDACi selectivity profiling. Indeed, binding of (R/S)-LA and (R/S)-LM to HDAC1, HDAC2, HDAC3, HDAC6, and, to a lesser extent, HDAC8 was confirmed in these assays (Supplementary Fig. 1c, d). No binding to class IIa HDACs or the recently discovered common HDAC inhibitor off-target MBLAC2 was observed (Supplementary Fig. 1e)[12]. […] This observation might reflect electrostatic repulsion between the HDAC10 active site gate-keeper glutamic acid residues[15],[16] and the terminal carboxylic acid of LA.
# To assess the degree of protein depletion from lysates by the affinity matrix, a second pulldown (PDPD) with fresh beads was performed using the unbound protein fraction from the vehicle control flow through. The beads were washed (1 × 1 mL of lysis buffer without inhibitors and only 0.4% Igepal, 2 × 2 mL of lysis buffer without inhibitors and only 0.2% Igepal), and captured proteins were denatured with 8 M urea buffer, alkylated with 55 mM chloroacetamide and digested with Trypsin according to standard procedures. The resulting peptides were desalted on a C18 filter plate (Sep-Pak® tC18 µElution Plate, Waters), vacuum dried, and stored at −20 °C until LC–MSMS measurement.
# For the competition assays, relative binding was calculated based on the protein intensity ratio to the DMSO control for every single inhibitor concentration. EC50 values were derived from a four-parameter log-logistic regression with variable slope (constrain: bottom > 0). The obtained EC50 values were multiplied with a protein-dependent correction factor (cf), resulting in the apparent Kd value (Kd^app). The correction factor is determined by calculating the ratio of the protein intensity of two consecutive pulldowns of the vehicle control sample[13]. Targets of the inhibitors were annotated manually according to published procedures[12],[46],[47]. […] Additionally, the number of unique peptides and MSMS counts per condition were taken into account. Positive target binding across several independent experiments performed with different cell lysates further substantiated our confidence for a true positive drug-target binding event.
# A549 cells = test: CellRox deep red assay for ROS quantification (with or without arsenite); format: cell-based; conditions: sheet 4d
Structure (SMILES),fold lower affinity to HDAC10 compared to Vorinostat (TwinStrep-GST-HDAC10) [fold],DDX3X AcK118 acetylation level relative to control (DDX3X AcK118; 1 mM) [fold],DDX3X AcK118 acetylation level relative to control (DDX3X AcK118; .5 (mM)) [fold],concentration showing substantial increase of α-Tubulin AcK40 acetylation (α-Tubulin AcK40) [µM],α-Tubulin AcK40 acetylation level relative to control (α-Tubulin AcK40; 1 mM) [fold],α-Tubulin AcK40 acetylation level relative to control (α-Tubulin AcK40; .5 (mM)) [fold],relative binding vs DMSO (TBL1XR1 (Homo sapiens); log10 M -3.52288),relative binding vs DMSO (TBL1XR1 (Homo sapiens); log10 M -4),relative binding vs DMSO (TBL1XR1 (Homo sapiens); log10 M -4.52288),relative binding vs DMSO (TBL1XR1 (Homo sapiens); log10 M -5),relative binding vs DMSO (TBL1XR1 (Homo sapiens); log10 M -5.52288),relative binding vs DMSO (TBL1XR1 (Homo sapiens); log10 M -6),relative binding vs DMSO (TBL1XR1 (Homo sapiens); log10 M -6.52288),relative binding vs DMSO (TBL1XR1 (Homo sapiens); log10 M -7),"α-Tubulin AcK40 acetylation level relative to control (α-Tubulin AcK40; 1 mM, listed as LM) [fold]","ROS (CellRox), relative to DMSO -Ars., Mean (A549 cells; R/S-LM +Ars)","ROS (CellRox), relative to DMSO -Ars., replicate values (A549 cells; R/S-LM +Ars)","ROS (CellRox), relative to DMSO -Ars., Mean (A549 cells; R/S-LM -Ars)","ROS (CellRox), relative to DMSO -Ars., replicate values (A549 cells; R/S-LM -Ars)"
"O=C(O)CCCCC1CCSS1 (racemic) [(R/S)-LA, (R/S)-lipoic acid]",~200,2.4,1.8,50,3.4,2,0.2899,0.4212,0.5577,0.7209,0.9534,0.8832,1.088,1.002,,,,,
"NC(=O)CCCCC1CCSS1 (racemic) [(R/S)-LM, (R/S)-lipoamide]",5,2.4,2.1,50,4.0,2.5,0.1308,0.176,0.3741,0.8567,0.9248,0.9851,0.8544,0.9921,4,1.413,1.506 and 1.194 and 1.54,1.131,1.077 and 0.9596 and 1.357
